Reference: patent US20020040062A1, “Protein kinase C activators and their use in decreasing expression of cell antigens” (The Trustees of Columbia University, priority 1993, published 2002)
Marks after values point to notes of the source that are not given here.

B1: IFN-β: recombinant human fibroblast interferon with a serine substituted for a cysteine at position 17 (protein, UniProt P01574 22-187, looked up, variant C17S)
Interferon beta: MSYNLLGFLQRSSNFQSQKLLWQLNGRLEYCLKDRMNFDIPEEIKQLQQFQKEDAALTIYEMLQNIFAIFRQDSSSTGWNETIVENLLANVYHQINHLKTVLEEKLEKEDFTRGKLMSSLHLKRYYGRILHYLKAKEYSHCAWTIVRVEILRNFYFINRLTGYLRN
B2: IFN-γ: recombinant human immune interferon produced in Escherichia coli (protein, UniProt P01579 24-161, looked up)
Interferon gamma: QDPYVKEAENLKKYFNAGHSDVADNGTLFLGILKNWKEESDRKIMQSQIVSFYFKLFKNFKDDQSIQKSVETIKEDMNVKFFNSNKKKRDDFEKLTNYSVTDLNVQRKAIHELIQVMAELSPAAKTGKRKRSQMLFRG

Columns and labels:
Type in all cases: cell-based, human
HLA Class II antigens = assay: FACS analysis of HLA Class II antigen surface expression in T47D cells; details: for HLA Class II level of upregulation versus untreated control cells (equivalent to 1.0): presence or absence of 0.1 μg/ml H-7; for HLA Class II relative increase in expression versus untreated controls (equivalent to 1.0): presence or absence of 1.0 μg/ml H-7; for fold increase in HLA Class II expression: 500 units/ml IFN-α, IFN-β or IFN-γ as in Table 3
Description: (§1) IgG1 murine monoclonal antibody Cu18 and Cu46 recognize two different epitopes of a highly restricted breast carcinoma associated glycoprotein of Mr 225,000 to 250,000 (BCA 225). This TAA is expressed intracytoplasmically and on the membrane of 94% of breast tumors tested and in the T47D human breast carcinoma cell line. BCA 225 is shed into the culture medium by T47D cells and into the sera of breast cancer patients. IgG2a monoclonal antibody L243 (anti HLA Class II-DR) recognizes a monomorphic HLA Class II-DR-α epitope (ATCC M355). Monoclonal antibody CL203.4 [40], which recognizes ICAM-I, was kindly provided by Dr. S. Ferrone, New York Medical College, NY. The c-erbB-2 monoclonal antibody which recognizes the extracellular domain of c-erbB-2 was obtained from Triton Biosciences, Inc., Alamedia, Calif. Monoclonal antibodies Cu18 and Cu46 were used at 0.05 μg/ml and monoclonal antibodies interacting with HLA Class II-DR, ICAM-1 and c-erbB-2 were used at 10 μg/ml.
(§2) T47D cells treated with the various compounds were analyzed by flow cytometry using appropriate monoclonal antibody concentrations as described previously. Briefly, 1×10^5 cells were incubated with the test antibody for 30 min at 4° C., washed 3× with PBS and incubated with a goat a mouse F (ab)2 FITC conjugated test antibody at a 1:40 dilution for 30 min at 4° C. Cells were then washed 3× with PBS and analyzed on a FACStar (Beckon Dickinson, Mountain View, Calif.) or a Coulter Epics IV FACS (Coulter, Hialeah, Fla.). Results are expressed as mean fluorescence intensity (MFI) units which were determined as described previously. MFI=(mean channel fluorescence in fluorescence positive antibody-binding cells×% of fluorescence positive antibody-binding cells)−(mean channel fluorescence in unstained cells×% of fluorescence positive cells in the unstained population). All studies were performed a minimum of three or four times with duplicate samples in each experiment.

BCA 225 [1] = assay: FACS analysis of BCA 225 surface expression in T47D cells; details: 72 hr; for BCA 225 Expression, level of enhancement relative to control (equivalent to 1.0): presence or absence of 0.1 μg/ml H-7
Description: as §1, with “μg/ml. For each experiment, isotype matched control backgrounds (IgG for Cu18, Cu46 and ICAM-1, IgG2a for HLA Class Ii and IgG2b for c-erbB-2) were subtracted from the experimental results. Background from antimouse IgG FITC antibody was also subtracted from experimental results. Applicants never observed backgrounds higher than 2% of total cells for isotypic mouse IgG or higher than 5% for antimouse IgG FITC.” for “μg/ml.”
as §2, with “experiment. Replicate samples within individual experiments varied by ≦10% and variation between experiments were generally ≦20%.” for “experiment.”

BCA 225 [2] = assay: BCA 225 synthesis, double-determinant ELISA of T47D cell lysates; details: T47D cells, 72 hr
Protocol: (§3) After appropriate incubation times with the various compounds cell lysates were prepared from T47D cells. Cells were washed 3× in PBS, pH 7.6, pelleted and incubated for 1 hr at room temperature in 20 mM Tris HCl, pH 7.4, with PMSF. Cultures were then homogenized with a Teflon homogenizer, centrifuged at 3000 RPM for 10 min at 4° C. and the supernatant was mixed 1:2 with 20 mM Tris-HCl, pH 7.4, containing 0.5% NP40 (Sigma). After 1 hr at 4° C., the mixture was spun at 3000 RPM for 10 min and the supernatant was passed through an EXTRACTIGEL column (Pierce, Ill.) to remove excess detergent. Protein concentration was determined by the BCA micro-method (Pierce, Ill.). BCA 225 levels in cell extracts and supernatants from control and treated T47D cells were quantitated using a double-determinant ELISA assay. Briefly, Cu18 monoclonal antibody coated Nunc Immunoplates (Nunc, Denmark) were blocked with 1% BSA (Sigma, RIA Reagent Grade) and incubated with a 1:2 dilution of supernatant in duplicate. Standard values for a partially purified BCA 225 preparation were used at a range of 0 to 10 μg/ml in RPMI 1640 plus 10% FBS (T47D growth medium). After 2 hr incubation and three washings with PBS 0.1% Tween 20 a Cu46 monoclonal antibody conjugated to peroxidase was applied to the plate, incubated for 2 hr, washed 6× in PBS 0.1% Tween 20 and the reaction was developed with […] OPD (Sigma, St. Louis) and 4 μl of 30% H2O2 in McIlvans buffer, pH […]. The plates were read on a Dynatech Elisa reader and a linear standard curve was generated and used to calculate the relative amount of BCA 225 in cell lysates and shed into the culture medium. Results were adjusted to ng BCA 225 per mg of protein, or per 1×10^6 cells. Replicate samples varied by ≦10% and replicate experiments varied by ≦20%.

BCA 225 [3] = assay: BCA 225 shedding into culture medium, double-determinant ELISA; details: T47D cells; for BCA 225 Shedding / BCA 225 Shedding, level of enhancement relative to control (equivalent to 1.0) / BCA 225 Shedding, relative change in comparison with controls (equivalent to 1.0): 72 hr; for ability to induce shedding of BCA 225: Table 2
Protocol: as §3

[4] = 72 hr, 0.1 μg/ml TPA or MEZ, presence or absence of 0.1 μg/ml H-7, FACStar
[5] = 0.1 μg/ml TPA, 0.1 μg/ml MEZ or 0.25 μg/ml ADMB
[6] = 0.1 μg/ml TPA, 0.1 μg/ml MEZ or 0.25 μg/ml ADMB, presence or absence of 0.1 μg/ml H-7, CU18 antibody
[7] = 0.1 μg/ml TPA, 0.1 μg/ml MEZ or 0.25 μg/ml ADMB, presence or absence of 0.1 μg/ml H-7
[8] = 72 hr, 500 units/ml IFN-β or 50 units/ml IFN-γ
[9] = 72 hr, 500 units/ml IFN-β or 50 units/ml IFN-γ, presence or absence of 1.0 μg/ml H-7, Coulter Epics IV FACS
[10] = 500 units/ml IFN-β or 50 units/ml IFN-γ, presence or absence of 1.0 μg/ml H-7

| Molecule | HLA Class II level of upregulation versus untreated control cells (equivalent to 1.0) (HLA Class II antigens; 72 hr, 0.1 μg/ml TPA or MEZ) | Antigenic Expression (MFI) HLA Class II (HLA Class II antigens; [4]) | BCA 225 Expression, level of enhancement relative to control (equivalent to 1.0) (BCA 225 [1]; [5]) | BCA 225 Expression (BCA 225 [1]; [6]) | BCA 225 Synthesis (BCA 225 [2]; [7]) [ng/mg protein] | BCA 225 Synthesis, level of enhancement relative to control (equivalent to 1.0) (BCA 225 [2]; [7]) | BCA 225 Shedding (BCA 225 [3]; [7]) [ng/ml/10^6 cells] | BCA 225 Shedding, level of enhancement relative to control (equivalent to 1.0) (BCA 225 [3]; [7]) | ability to induce shedding of BCA 225 (BCA 225 [3]) | HLA Class II relative increase in expression versus untreated controls (equivalent to 1.0) (HLA Class II antigens; [8]) | Antigenic Expression (MFI) HLA Class II (HLA Class II antigens; [9]) | BCA 225 Expression (BCA 225 [1]; [10]) | BCA 225 Expression, relative change in comparison with controls (equivalent to 1.0) (BCA 225 [1]; [10]) | BCA 225 Synthesis (BCA 225 [2]; [10]) [ng/mg protein] | BCA 225 Synthesis, relative change in comparison with controls (equivalent to 1.0) (BCA 225 [2]; [10]) | BCA 225 Shedding (BCA 225 [3]; [10]) [ng/ml/10^6 cells] | BCA 225 Shedding, relative change in comparison with controls (equivalent to 1.0) (BCA 225 [3]; [10]) | efficacy of upregulation of HLA Class II antigens (fold-change in MFI, FIG. 2) (HLA Class II antigens; 72 hr, 0.1 μg/ml of ADMB, TPA or MEZ) | fold increase in HLA Class II expression (HLA Class II antigens) [fold] |
| --- | --- | --- | --- | --- | --- | --- | --- | --- | --- | --- | --- | --- | --- | --- | --- | --- | --- | --- | --- |
| CCCCCCCCCCCCCC(=O)O[C@@H]1[C@@H](C)[C@@]2(O)[C@@H](C=C(CO)C[C@]3(O)C(=O)C(C)=C[C@@H]23)[C@H]2C(C)(C)[C@]12OC(C)=O [TPA, 12-0-tetradecanoyl-phorbol-13-acetate] | (2.9) | 9,984 MFI | 1.8 | 11,696 MFI | 394 | 2.4 | 84 | 3.0 | enhance shedding of BCA 225 |  |  |  |  |  |  |  |  |  |  |
| C=C(C)[C@@]12O[C@@]3(c4ccccc4)O[C@@H]1[C@@H]1[C@@H]4O[C@]4(CO)[C@@H](O)[C@]4(O)C(=O)C(C)=C[C@H]4[C@@]1(O3)[C@H](C)[C@H]2OC(=O)/C=C/C=C/c1ccccc1 [MEZ, mezerein] | (3.0) | 10,260 MFI | 2.5 | 16,065 MFI | 507 | 3.1 | 147 | 5.3 | enhance shedding of BCA 225 |  |  |  |  |  |  |  |  |  |  |
| CC1CNCCN1S(=O)(=O)c1cccc2cnccc12.Cl.Cl (stereo not drawn) [H-7, 1-(5-isoquinolinesulfonyl)-2-methylpiperazine dihydrochloride] | (1.3)^b | 4,563 MFI | 0.8 | 5,428 MFI | 142 | 0.9 | 23 | 0.8 |  | 1.2 | 3,490 MFI | 2,560 MFI | 0.9 | 230 | 1.0 | 38 | 0.8 |  |  |
| CCCCCCCCCCN(C)c1cc(CO)cc(NC(C)=O)c1 [ADMB, 3-(N-acetylamino)-5-(N-decyl-N-methylamino)-benzyl alcohol] |  |  | 2.0 | 12,825 MFI | 299 | 1.8 | 26 | 0.9 | did not induce this effect |  |  |  |  |  |  |  |  | somewhat more effective than TPA and MEZ |  |
| B1 |  |  |  |  |  |  |  |  |  | 10.8 | 31,413 MFI | 5,716 MFI | 2.0 | 374 | 1.7 | 69 | 1.5 |  | 11 |
| B2 |  |  |  |  |  |  |  |  |  | 69.2 | 202,102 MFI | 9,069 MFI | 3.2 | 722 | 3.2 | 64 | 1.4 |  | 69 |
